Results: patent publication US20220000841A1, “INHIBITORS OF METALLO-BETA-LACTAMASES” (CENTRE NATIONAL DE LA RECHERCHE SCIENTIFIQUE, priority 2018, published 2022)

Assays:
VIM-1 = VIM-1 (Pseudomonas aeruginosa, UniProt A0A0F7KYQ8); experiment: Enzymatic assay for determination of inhibition constants, reporter substrate method, purified VIM-1; type: biochemical; conditions: isolated MBL, competitive inhibition model;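 also: initial hydrolysis rates of a reporter β-lactam (imipenem, meropenem, cefotaxime or nitrocefin) followed by absorbance change, purified enzyme at 1–70 nM in 50 mM HEPES pH 7.5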
VIM-2 = VIM-2 (Escherichia coli, UniProt Q5U7L7); experiment: Enzymatic assay for determination of inhibition constants, reporter substrate method, purified VIM-2; type: biochemical; conditions: isolated MBL, competitive inhibition model; read-out: Ki VIM-2;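 also: purified VIM-2 hydrolysing a reporter substrate (imipenem, meropenem, cefotaxime or nitrocefin), reaction rate read as absorbance change, HEPES 50 mM at pH 7.5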
Method: (§1) The reaction rate was measured as the variation of absorbance observed upon substrate hydrolysis in a UV-Vis spectrophotometer or microplate reader at a wavelength of 300 nm (imipenem, meropenem), 260 nm (cefotaxime) or 482 nm (nitrocefin) in 50 mM HEPES buffer (pH 7.5) and in the presence of a purified MBL enzyme (such as VIM-1, VIM-2, VIM-4, NDM-1 and IMP-1, at a final concentration ranging 1-70 nM).
(§2) The inhibition constants (Ki) were determined on the basis of a model of competitive inhibition by analyzing the dependence of the ratio v0/vi (v0, hydrolysis velocity in the absence of inhibitor; vi, hydrolysis velocity in the presence of inhibitor) as a function of [I] as already described [Docquier J. D., Lamotte-Brasseur J., Galleni M., Amicosante G., Frère J. M., Rossolini G. M. (2003) J. Antimicrob. […] The slope of the plot of v0/vi vs [I], which corresponds to Km^S/(Km^S+[S])Ki (where Km^S is the Km value of the reporter substrate and [S] its concentration in the reaction mixture) and allowed the calculation of the Ki value. Alternatively, a Dixon plot analysis was carried out, by measuring the initial hydrolysis rates in the presence of variable concentrations of inhibitor and substrate.

VIM-4 = VIM-4 (Pseudomonas aeruginosa, UniProt Q8KRJ3); experiment: Enzymatic assay for determination of inhibition constants, reporter substrate method, purified VIM-4; type: biochemical; conditions: at 100 μM (maximal tested concentration);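 also: purified VIM-4 (1-70 nM) in 50 mM HEPES pH 7.5, reporter substrate hydrolysis rate tracked by absorbance change (nitrocefin 482 nm, imipenem or meropenem 300 nm, cefotaxime 260 nm)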
Method: as §1, §2

NDM-1 = NDM-1 (Klebsiella pneumoniae, UniProt C7C422); experiment: Enzymatic assay for determination of inhibition constants, reporter substrate method, purified NDM-1; type: biochemical; conditions: for Ki: isolated MBL, competitive inhibition model; for % inhibition NDM-1: at 100 μM (maximal tested concentration);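 as to all read-outs here: purified enzyme activity followed as absorbance change from reporter substrate hydrolysis on a UV-Vis spectrophotometer or plate reader, 50 mM HEPES pH 7.5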
NDM-1, sequence (C7C422 29-270, looked up, species assumed): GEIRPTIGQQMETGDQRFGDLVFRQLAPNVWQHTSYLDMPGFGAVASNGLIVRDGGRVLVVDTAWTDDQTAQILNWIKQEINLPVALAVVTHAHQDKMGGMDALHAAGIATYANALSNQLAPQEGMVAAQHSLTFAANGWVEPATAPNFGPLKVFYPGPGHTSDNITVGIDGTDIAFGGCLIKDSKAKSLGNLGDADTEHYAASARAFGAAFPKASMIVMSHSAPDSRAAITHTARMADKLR
Method: as §1, §2

IMP-1 = IMP-1 (Serratia marcescens, UniProt P52699); experiment: Enzymatic assay for determination of inhibition constants, reporter substrate method, purified IMP-1; type: biochemical; conditions: for Ki: isolated MBL, competitive inhibition model;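 as to all read-outs here: purified IMP-1 (1-70 nM) hydrolysing a reporter substrate, initial rates followed as absorbance change at 260, 300 or 482 nm in 50 mM HEPES pH 7.5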
IMP-1, sequence (P52699 19-246, looked up, species assumed): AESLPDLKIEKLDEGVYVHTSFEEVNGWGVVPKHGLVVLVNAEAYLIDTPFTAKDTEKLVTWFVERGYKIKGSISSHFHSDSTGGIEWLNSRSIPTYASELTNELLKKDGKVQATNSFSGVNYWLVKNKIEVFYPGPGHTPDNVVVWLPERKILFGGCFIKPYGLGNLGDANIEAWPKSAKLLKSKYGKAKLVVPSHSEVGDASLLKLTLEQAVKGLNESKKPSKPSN

[1] = test system: K. pneumoniae SI-001 (blaVIM-1+); experiment: Broth microdilution MIC of meropenem in absence and presence of MBL inhibitor, SI-001; type: cell-based; conditions: MBL inhibitor fixed at 32 μg/ml, Mueller-Hinton broth, duplicate
Method: (§3) This method was performed in agreement with the CLSI recommendations (document M07-A10, 2015, “Methods for Dilution Antimicrobial Susceptibility Tests for Bacteria That Grow Aerobically”).
(§4) MIC values of meropenem (MEM) were determined in duplicate in Mueller-Hinton broth as recommended by CLSI (document M07-A10, 2015), in absence and presence of a fixed concentration of MBL inhibitor (32 μg/ml).

[2] = test system: K. pneumoniae S1-002 (blaVIM-4+); experiment: Broth microdilution MIC of meropenem in absence and presence of MBL inhibitor, S1-002; type: cell-based; conditions: MBL inhibitor fixed at 32 μg/ml, Mueller-Hinton broth, duplicate
Method: as §3, §4

Ki (NDM-1) [µM] | MIC potentiation of meropenem (x.log2 dilutions), K. pneumoniae SI-001 (blaVIM-1+) [1] [log2 dilutions] | MIC potentiation of meropenem (x.log2 dilutions), K. pneumoniae S1-002 (blaVIM-4+) [2] [log2 dilutions] | Compound | Ki (VIM-1) [µM] | Ki (VIM-2) [µM] | % inhibition VIM-4 (VIM-4) [% at 100 μM] | Ki (IMP-1) [µM] | melting point [°C] | % inhibition NDM-1 (NDM-1) [% at 100 μM] | % inhibition IMP-1 (IMP-1; at 100 μM (maximal tested concentration)) [% at 100 μM]
> 100 | 3 | ≥4 | O=C(O)c1ccccc1CCn1c(-c2cccc(-c3ccccc3)c2)n[nH]c1=S [Compound 39, 5-(3-Biphenyl)-4-[2-(2-carboxyphenyl)ethyl]-1,2,4-triazole-3-thione] | 1 to 10 | < 1 |  | > 100 |  |  | 
10 to 100 | ≥4 | ≥4 | Oc1ccc(CCn2c(-c3cccc(-c4ccccc4)c3)n[nH]c2=S)c(O)c1 [Compound 42, 5-(3-Biphenyl)-4-[2-(2,4-dihydroxyphenyl)ethyl]-1,2,4-triazole-3-thione] | < 1 | 1 to 10 |  | > 100 |  |  | 
> 100 | 2 | 3 | O=C(O)c1ccccc1CCn1c(-c2cccc(OCCN3CCOCC3)c2)n[nH]c1=S [Compound 62, o-(2-{3-[m-(2-Morpholinoethoxy)phenyl]-5-thioxo-1,4-dihydro-1,2,4-triazol-4-yl}ethyl)benzoic acid] | 1 to 10 | < 1 |  | > 100 |  |  | 
> 100 | 2 | 3 | CN1CCN(CCOc2cccc(-c3n[nH]c(=S)n3CCc3ccccc3C(=O)O)c2)CC1 [Compound 63, o-[2-(3-{m-[2-(4-Methyl-1-piperazinyl)ethoxy]phenyl}-5-thioxo-1,4-dihydro-1,2,4-triazol-4-yl)ethyl]benzoic acid] | 1 to 10 | < 1 |  | > 100 |  |  | 

Compound | Ki (NDM-1) [µM] | MIC potentiation of meropenem (x.log2 dilutions), K. pneumoniae SI-001 (blaVIM-1+) [1] [log2 dilutions] | MIC potentiation of meropenem (x.log2 dilutions), K. pneumoniae S1-002 (blaVIM-4+) [2] [log2 dilutions] | Ki (VIM-1) [µM] | Ki (VIM-2) [µM] | % inhibition VIM-4 (VIM-4) [% at 100 μM] | Ki (IMP-1) [µM] | melting point [°C] | % inhibition NDM-1 (NDM-1) [% at 100 μM] | % inhibition IMP-1 (IMP-1; at 100 μM (maximal tested concentration)) [% at 100 μM]
COc1ccc(O)c(-c2n[nH]c(=S)n2CCCC(=O)O)c1 [Compound 18, 4-[3-(2-hydroxy-5-methoxyphenyl)-5-sulfanylidene-4,5-dihydro-1H-1,2,4-triazol-4-yl]butanoic acid] | > 100 |  |  | > 100 | 1 to 10 | 90 | > 100 | 155 to 156 |  | 
O=C(O)CCCn1c(-c2ccc3ccccc3c2)n[nH]c1=S [Compound 19, 4-[3-(naphthalen-2-yl)-5-sulfanylidene-4,5-dihydro-1H-1,2,4-triazol-4-yl]butanoic acid] | > 100 |  |  | > 100 | 1 to 10 | 75 | > 100 | 220 to 221 |  | 
O=C(O)CC(Cn1c(-c2ccccc2)n[nH]c1=S)c1ccc(Cl)cc1 (stereo not drawn) [Compound 21, 3-(4-chlorophenyl)-4-(3-phenyl-5-sulfanylidene-4,5-dihydro-1H-1,2,4-triazol-4-yl)butanoic acid] | > 100 |  |  | > 100 | 1 to 10 | 95 | > 100 | 153 to 154 |  | 
O=C1OC(Cn2c(-c3ccccc3)n[nH]c2=S)c2ccccc21 (stereo not drawn) [Compound 37, 5-Phenyl-4-[(3-phthalideyl)methyl]-2,4-dihydro-1,2,4-triazole-3-thione] |  | 3 | 3 | < 1 | > 100 |  | > 100 |  | 50 | 
Cn1cccc1-c1n[nH]c(=S)n1CCSCc1ccccc1 [Compound 64, 4-[2-(Benzylthio)ethyl]-5-(1-methyl-1H-pyrrol-2-yl)-2,4-dihydro-1,2,4-triazole-3-thione] |  | 3 | ≥4 | < 1 | < 1 |  |  |  | 75 | 90
